Results on two compounds are retold here after patent US20150150843A1, “CARDIOPROTECTIVE COMPOUNDS, THEIR USE WITH CHEMOTHERAPY, AND METHODS FOR IDENTIFYING THEM” (priority 2012, published 2015).

Marks after values point to notes of the source that are not given here.

One data set deals with mouse cardiac sections. Kind of data set: TUNEL apoptosis assay in hearts of doxorubicin-treated mice. The data set is classed as in vivo. The following applies: one day. As to the method: To determine if the ability of VIS and DPU to protect cardiomyocytes from apoptosis was conserved in mammals, we treated mice with doxorubicin with or without co-treatment with VIS or DPU. One day later, hearts were collected for apoptosis assays using TUNEL (Supplement FIG. 1b). […] Therefore, VIS and DPU appear to prevent doxorubicin-induced cardiac apoptosis in both zebrafish and mice.
One day after injection, hearts were collected and fixed with 4% PFA at 4° C. overnight and then were subjected to paraffin embedding and sectioning. The heart sections were stained using the TMR TUNEL kit (Roche) following the manufacturer's protocol. The stained sections were scanned with MetaMorph-assisted slide scanning microscopy, and apoptosis indices were quantified as TUNEL positive cell/mm^2. All experiments were done at least three times, and the statistics were obtained by Student T-test.

Another data set relates to zebrafish heart. Kind of data set: Doxorubicin-induced heart failure model in zebrafish (heart contraction, tail circulation, morphology, fractional shortening). In kind it is in vivo. The method, then:
For screening, about 400 nl of small molecule stock solution was transferred from 96-well format library plates to fish plate with transfer pins. At dpf 3, treated fish were screened under inverted fluorescent microscope (100×) for heart contraction and tail circulation.
Zebrafish have been used successfully for high-throughput screening (HTS) to identify chemical compounds that suppress genetic defects and other disease states (Peterson et al., Methods Cell. Biol. 105, 525-541, 2011). Compared to cell-based in vitro systems, in vivo screening offers several advantages, including the ability to discover compounds with therapeutic activity even without knowing their molecular targets. In addition, compounds discovered by in vivo screening are selected for their ability to be effective in the complex context of the disease of interest. […] Heart contraction was dramatically compromised, resulting in the absence of blood cell circulation within tail blood vessels. Using a high-speed camera and a custom analysis algorithm, we were able to calculate the fractional shortening of the zebrafish hearts. […] Therefore, the zebrafish model appears to recapitulate several key aspects of the doxorubicin-induced heart failure seen in humans, including increased apoptosis and reduced contractility. Because the doxorubicin-induced changes in cardiac function and blood circulation are easily detected visually, they formed the basis of an assay to identify small molecules suppressing doxorubicin-induced cardiotoxicity.
Hearts were surgically removed and briefly fixed with 4% paraformaldehyde (PFA) for 20 minutes at room temperature. The fixed heart samples were embedded in mounting medium and flattened with slide and coverslip. Confocal images were captured from the flattened hearts, and red nuclei were counted. All experiments were done at least three times, and the statistics were obtained by Student T-test.
In order to confirm and quantify the activity of compounds with cardioprotective properties identified in the preceding assays, a high-resolution assay of cardiac function, described by Shin et al. (Physiol Genomics. 2010 July; 42(2): 300-309), can be used to measure heart fractional shortening.

Data set [1] has as its system mouse heart function. Kind of data set: Acute doxorubicin-induced HF model in mice, echocardiography. The following applies: five days. The data set is classed as in vivo. The method, then:
Five days after the initial injection, we assessed heart function by M mode echocardiogram.
Strain C57BL/6 male mice between 8-10 weeks of age were purchased from Charles River Laboratories. […] In the control group, plain vehicle and saline were injected instead. Five days later, injected mice were subjected to echocardiography. Five days after treatment, transthoracic echocardiographic images were obtained and interpreted by an echocardiographer blinded to the experimental design using a 13.0-MHz linear probe (Vivid 7; GE Medical System, Milwaukee, Wis.) as described (Zou et al., Crit. Care Med. 38, 1335-1342, 2010; Neilan et al., Eur. Heart J. 27, 1868-1875, 2006). Mice were lightly anesthetized with ketamine (20 mg/kg). M-mode images were obtained from a parasternal short-axis view at the midventricular level with a clear view of papillary muscle. Tissue Doppler imaging was collected at a frame rate of 483 frames per second and a depth of 1 em. LV end-diastolic internal diameter (LVIDd) and LV end systolic internal diameter (LVIDS) were measured. Fractional shortening (FS) was defined as [(LVIDd−LVIDS)/LVIDd]. Strain rate of the posterior wall was analyzed offline in an EchoPAC workstation (GE Healthcare, Wauwatosa, Wis.). A region of interest (axial distance, 0.2 mm; width, 0.6 mm) was manually positioned in the middle of the posterior wall. A strain length of 0.5 mm was used. Peak systolic strain rate was measured. The temporal smoothing filters were turned off for all measurements. The values of three consecutive cardiac cycles were averaged.

The subject of another data set is zebrafish cardiomyocytes. Kind of data set: TUNEL staining of apoptotic cardiomyocytes in doxorubicin-treated zebrafish. In kind it is in vivo. As to the method:
Because cardiomyocyte apoptosis plays a critical role in mediating doxorubicin-induced cardiomyopathy, we sought to determine if VIS Aand DPU attenuate heart failure by inhibiting cardiomyocyte apoptosis.
Hearts were surgically removed and fixed with 4% paraformaldehyde (PFA) for 20 minutes at room temperature. After staining with an in situ TUNEL kit (Roche), heart samples were embedded in mounting medium and flattened with slide and coverslip, and then subjected to confocal microscopy. The data were quantified as percentage of TUNEL positive cardiomyocytes. All experiments were done at least three times, and the statistics were obtained by Student T-test.

For data set [2] the following is noted: patients; cited from earlier work.
In data set [3] the test system is JNK responsive reporter AP-1 in HL 1 cells. Kind of data set: AP-1 luciferase reporter assay in HL 1 cells. In kind it is cell-based, mouse. The following applies: doxorubicin-treated. The source says: (§1) In an effort to identify pathways involved in VIS and DPU mediated cardioprotection, we screened a panel of kinases by western blotting. […] To confirm the cardiomyocyte-specific inhibition of JNK signaling, we used a luciferase-based AP1 reporter assay to detect JNK activation in HL 1 and DU145 cells.

In data set [4] the test system is prostate tumor cell DU145. Kind of data set: CellTiter Glo viability of doxorubicin-treated DU145. In kind it is cell-based, human. The following applies: VIS and DPU at 20 μM. As to the method:
(§2) Cardiomyocyte line HL-1 was derived from mouse atrium tumor. Culturing conditions were previously published (Claycomb et al., Proc. Natl. Acad. Sci. USA, 95, 2979, 1998). HL 1 was cultured with Claycomb medium (Sigma) supplemented with fetal bovine serum (FBS), penicillin/streptomycin, L-glutamine and norepinephrine. DU145 and LNCaP are human prostate tumor lines, while MCF7 is a human breast cancer line. DU145 and MCF7 were cultured with high glucose DMEM (Life Sciences) supplemented with penicillin/streptomycin and L-glutamine, and LNCaP was grown in RPMI-1640 (Life Sciences) plus penicillin/streptomycin and L-glutamine. […] All experiments were done at least three times, and the statistics were obtained by Student T-test.
On the technique in general: Cellular ATP, detected with luciferase, serves as a proxy for viable cell number.

The subject of data set [5] is neonatal rat cardiomyoyte. Kind of data set: Doxorubicin-induced apoptosis in neonatal rat cardiomyocyte. In kind it is cell-based.
In the next data set the test system is cardiomyocyte HL1. Kind of data set: CellTiter Glo viability of doxorubicin-treated HL1. The following applies: VIS and DPU at 20 μM. In kind it is cell-based, mouse. As to the method: as §2
Another data set deals with tumor line LNCaP. Kind of data set: Doxorubicin-induced apoptosis in tumor line LNCaP. In kind it is cell-based, human. The method, then:
(§3) Cardiomyocyte line HL-1 was derived from mouse atrium tumor. Culturing conditions were previously published (Claycomb et al., Proc. Natl. Acad. Sci. USA, 95, 2979, 1998). HL 1 was cultured with Claycomb medium (Sigma) supplemented with fetal bovine serum (FBS), penicillin/streptomycin, L-glutamine and norepinephrine. DU145 and LNCaP are human prostate tumor lines, while MCF7 is a human breast cancer line. DU145 and MCF7 were cultured with high glucose DMEM (Life Sciences) supplemented with penicillin/streptomycin and L-glutamine, and LNCaP was grown in RPMI-1640 (Life Sciences) plus penicillin/streptomycin and L-glutamine. […] Apoptosis indices were quantified as percentage of AnnexinV positive cells. All experiments were done at least three times, and the statistics were obtained by Student T-test.

The subject of data set [6] is JNK phosphorylation in DU145 cells. Kind of data set: JNK phosphorylation western blot in DU145 cells. The data set is classed as cell-based, human.
Description: as §1

Data set [7] concerns JNK responsive reporter AP-1 in DU145 cells. Kind of data set: AP-1 luciferase reporter assay in DU145 cells. In kind it is cell-based, human. The following applies: doxorubicin-treated.
Description: as §1
(In general: A reporter such as luciferase makes a cellular process visible.)

A further data set deals with tumor line DU145. Kind of data set: Doxorubicin-induced apoptosis in tumor line DU145. In kind it is cell-based, human. The method, then:
as §3

Data set [8] relates to caspases 3, 8 and 9 in cardiomyocyte. Kind of data set: Caspase 3, 8 and 9 activity (fluorogenic substrates) in cardiomyocyte. The data set is classed as cell-based. As to the method:
We also examined effects of the compounds on apoptosis (via TUNEL staining) in cardiomyocytes and tumor cells.
Specific activity of caspases 3, 8 and 9 were assessed semi-quantitatively using the corresponding fluorogenic substrates following manufacturer's protocols (R&D Systems). All experiments were done at least three times, and the statistics were obtained by Student T-test.

The test system of the next data set is cardiomyoyte HL1. Kind of data set: AnnexinV apoptosis assay in cardiomyocyte HL1. The data set is classed as cell-based, mouse. As to the method: as §3
For a further data set, the system named is tumor line MCF7. Kind of data set: Doxorubicin-induced apoptosis in tumor line MCF7. In kind it is cell-based, human. As to the method: as §3
For data set [9], the system named is JNK phosphorylation in HL 1 cells. Kind of data set: JNK phosphorylation western blot in HL 1 cells. In kind it is cell-based, mouse.
Description: as §1
Blots were quantified by densitometry with Image J. All experiments were done at least three times, and the statistics were obtained by Student T-test.
A general note: A western blot detects proteins with antibodies after separation by electrophoresis.

Data set [10] concerns mouse heart function. Kind of data set: Chronic low-dose doxorubicin treatment in mice, echocardiography. The data set is classed as in vivo. Conditions: low doses of doxorubicin 5 times over 5 weeks. An excerpt: Labels: DMSO: DMSO-treated control samples; Dox: doxorubicin-treated samples; Dox+VIS: doxorubicin and VIS co-treated samples; Dox+DPU: doxorubicin and DPU co-treated samples.

[11] abbreviates: mice, 15 mg/kg doxorubicin IP, with or without 25 mg/kg VIS IP, mean ± SEM.
[12] abbreviates: zebrafish treated with doxorubicin.

Regarding `COc1cccc2c1C(=O)c1c(O)c3c(c(O)c1C2=O)C[C@@](O)(C(=O)CO)C[C@@H]3O[C@H]1C[C@H](N)[C@H](O)[C@H](C)O1` [doxorubicin], the “increase in apoptosis in mouse cardiac sections (TUNEL)” value in the data set with mouse cardiac sections (15 mg/kg doxorubicin IP) was 3- to 4 fold. For the same compound, in the data set with zebrafish heart (100 μM doxorubicin for two days, cmlc2-dsRed line), the “atrium and ventricle cardiomyocyte numbers compared to controls” value was “significantly reduced”. In the data set with zebrafish heart (100 μM doxorubicin from 1 dpf, assessed at 3 dpf), the “heart rate and contractility” value is recorded as “dramatically reduced”. Besides, the pericardial edema result with zebrafish heart (100 μM doxorubicin from 1 dpf, two days exposure) is given as “extensive pericardial edema”. Besides, in the data set with mouse heart function [1] (setting [11]), the FS worked out at 44 ± 2 %, the HR was found to be 609 ± 23 beats/min, the LVIDs is recorded as 1.78 ± 0.10 mm and the “Strain Rate” value is 16 ± 1*** 1/sec. Further, in the data set with zebrafish cardiomyocytes (doxorubicin 100 μM, 4 dpf zebrafish), the “increase in apoptotic cardiomyocytes (TUNEL)” value is “four-fold increase”. For the same compound, the “cumulative dosages that exponentially increase the risk of heart failure” value in data set [2] is given as “above 450 mg/m^2”.

Take `COc1c2ccoc2cc2oc(C)cc(=O)c12` [VIS, visnagin]: the AP-1 luciferase activity result in data set [3] is “repressed”; in data set [7] it was “not repressed”. In addition, in data set [4], the “viability of doxorubicin-treated prostate tumor cell DU145” value is reported as “do not increase viability”. The “doxorubicin-induced apoptosis, AnnexinV staining” value was “inhibit doxorubicin-induced apoptosis” in [5] and “reduce doxorubicin-induced apoptosis” in the data set on cardiomyoyte HL1. The “doxorubicin-induced apoptosis, TUNEL staining” value in [5] is “inhibit doxorubicin-induced apoptosis”. Also, in the data set on cardiomyocyte HL1, the “viability of doxorubicin-treated cardiomyocyte HL1” value is given as “increase viability”. Also, in the data set with mouse cardiac sections (15 mg/kg doxorubicin plus 25 mg/kg visnagin or 10 mg/kg diphenylurea IP), the “doxorubicin-induced apoptosis in mouse heart (TUNEL)” value is “significantly decreased doxorubicin-induced apoptosis”. Also, the doxorubicin-induced apoptosis result with tumor line LNCaP, in the data set with tumor line DU145 and with tumor line MCF7 was “do not reduce doxorubicin-induced apoptosis” each time. Moreover, the “doxorubicin-induced JNK phosphorylation” value is “do not inhibit doxorubicin-induced JNK phosphorylation” in [6] and “inhibit doxorubicin-induced JNK phosphorylation” in [9]. In addition, the “cardiac contractility as measured by fractional shortening” value in the data set on zebrafish heart (setting [12]) is listed as “completely rescued cardiac contractility”. Further, in the data set with zebrafish heart (setting [12]), the “overt morphological effects of doxorubicin on the heart (ventricular compaction, pericardial edema)” value is listed as “prevented the overt morphological effects of doxorubicin on the heart”. In addition, the “fractional shortening and strain rate compared to mice treated with doxorubicin alone” value in the data set with mouse heart function [1] (25 mg/kg VIS immediately prior to 15 mg/kg doxorubicin IP) is “significant improvement”. Also, the “number of apoptotic cardiomyocytes induced by doxorubicin (TUNEL)” value in the data set with zebrafish cardiomyocytes (100 μM doxorubicin plus 20 μM rescue compound, two days) is listed as “greatly reduced the number of apoptotic cardiomyocytes”. For the same compound, in data set [8], the “activity of caspases 3, 8 and 9 activated by doxorubicin” value is “inhibited”. In addition, the “doxorubicin-induced reduction of fractional shortening” value in the data set on mouse heart function [10] is recorded as “partially reversed the reduction”. Moreover, the “doxorubicin-induced reduction of strain rate” value with mouse heart function [10] is given as “partially reversed the reduction”.
